Experimental data: the CheMixHub viscosity set

Test: xn = mol fraction of the nth substance listed

CC(=O)OCCC1CCCCC1 + CCCCCCCCCCO
viscosity [mPa·s], 101 kPa
Settings | 300 K | 310 K | 320 K
x2 = 0.1066 | 2.65 | 2.14 | 1.77
x2 = 0.1534 | 2.74 | 2.2 | 1.82
x2 = 0.2863 | 2.94 | 2.34 | 1.91
x2 = 0.337 | 3.14 | 2.46 | 2.01
x2 = 0.4105 | 3.47 | 2.72 | 2.15
x2 = 0.4983 | 3.91 | 3.02 | 2.41
x2 = 0.5476 | 4.25 | 3.26 | 2.56
x2 = 0.6306 | 4.92 | 3.76 | 2.93
x2 = 0.702 | 5.57 | 4.15 | 3.18
x2 = 0.7382 | 5.93 | 4.4 | 3.37
x2 = 0.8402 | 7.22 | 5.25 | 3.94
x2 = 0.9332 | 8.92 | 6.35 | 4.67

CCCCCCCCCO + CCCCCCCCO
viscosity [mPa·s], 101.8 kPa
Settings | x2 = 0.1095 | x2 = 0.3227 | x2 = 0.5251 | x2 = 0.7208 | x2 = 0.9082
298.15 K | 9.3 | 8.885 | 8.493 | 8.137 | 7.796
308.15 K | 6.575 | 6.317 | 6.057 | 5.821 | 5.595
318.15 K | 4.761 | 4.579 | 4.408 | 4.248 | 4.093

CCCCCCCCCO + CCCCCCCO
viscosity [mPa·s], 101.8 kPa
Settings | x2 = 0.1184 | x2 = 0.3815 | x2 = 0.5514 | x2 = 0.7089 | x2 = 0.9183
298.15 K | 9.014 | 7.935 | 7.47 | 6.84 | 6.013
308.15 K | 6.366 | 5.68 | 5.353 | 4.96 | 4.408
318.15 K | 4.618 | 4.157 | 3.932 | 3.662 | 3.286

CCCCCC[n+]1ccn(C)c1.O=[N+]([O-])[O-] + CCCCCCCO
Settings | viscosity [mPa·s]
308.15 K, 100 kPa, x1 = 0.9381 | 206.5

CCCCCCCCCO + CCCCCCO
viscosity [mPa·s], 101.8 kPa
Settings | x2 = 0.1351 | x2 = 0.4186 | x2 = 0.5817 | x2 = 0.7358 | x2 = 0.9282
298.15 K | 8.731 | 7.177 | 6.384 | 5.606 | 4.847
308.15 K | 6.206 | 5.187 | 4.651 | 4.127 | 3.596
318.15 K | 4.51 | 3.821 | 3.453 | 3.093 | 2.717

CC(=O)N(C)C + CCCCCO
viscosity [mPa·s], 100 kPa
Settings | 298.15 K | 313.15 K
x1 = 0.0569 | 3.02 | 2.057
x1 = 0.1068 | 2.69 | 1.887
x1 = 0.2009 | 2.246 | 1.634
x1 = 0.3051 | 1.92 | 1.419
x1 = 0.4017 | 1.68 | 1.283
x1 = 0.4989 | 1.498 | 1.159
x1 = 0.6011 | 1.358 | 1.065
x1 = 0.7029 | 1.223 | 0.973
x1 = 0.7966 | 1.121 | 0.895
x1 = 0.8962 | 1.041 | 0.833
x1 = 0.9519 | 0.981 | 0.8

CCC1CCCCC1 + CCCCCO
viscosity [mPa·s], 100 kPa
Settings | x2 = 0.1003 | x2 = 0.2013 | x2 = 0.3005 | x2 = 0.4001 | x2 = 0.5004 | x2 = 0.5995 | x2 = 0.7009 | x2 = 0.8003 | x2 = 0.9007
293.15 K | 0.91 | 0.99 | 1.108 | 1.248 | 1.489 | 1.788 | 2.169 | 2.681 | 3.292
298.15 K | 0.845 | 0.915 | 1.024 | 1.177 | 1.339 | 1.613 | 1.948 | 2.339 | 2.862
303.15 K | 0.785 | 0.848 | 0.943 | 1.071 | 1.21 | 1.425 | 1.724 | 2.056 | 2.495
308.15 K | 0.728 | 0.778 | 0.855 | 0.942 | 1.087 | 1.263 | 1.501 | 1.796 | 2.166
313.15 K | 0.682 | 0.73 | 0.801 | 0.882 | 0.998 | 1.156 | 1.337 | 1.602 | 1.92
318.15 K | 0.651 | 0.693 | 0.752 | 0.834 | 0.929 | 1.061 | 1.246 | 1.454 | 1.723
323.15 K | 0.61 | 0.647 | 0.697 | 0.773 | 0.849 | 0.959 | 1.115 | 1.294 | 1.529

CCOC(=O)c1cccc(O)c1 + CCCCCOC(C)=O
Settings | viscosity [mPa·s]
298.15 K, 101 kPa, x2 = 0.5 | 1.587

O=[N+]([O-])c1ccccc1O + CCCCCOC(C)=O
Settings | viscosity [mPa·s]
298.15 K, 101 kPa, x1 = 0.5 | 1.051

CC1CCCCC1=O (stereo not drawn) + CCCCN
303.15 K, 101.33 kPa
Settings | viscosity [mPa·s]
x2 = 0.1214 | 1.802
x2 = 0.2017 | 1.906
x2 = 0.3249 | 1.944
x2 = 0.4512 | 1.826
x2 = 0.5524 | 1.715
x2 = 0.6849 | 1.417
x2 = 0.8025 | 1.126
x2 = 0.8938 | 0.855

CC(=O)N1CCOCC1 + CCCCO
viscosity [mPa·s], 101 kPa
Settings | 293.15 K | 303.15 K | 313.15 K | 323.15 K
x1 = 0.0555 | 4.367 | 3.576 | 2.739 | 1.957
x1 = 0.1321 | 5.668 | 4.813 | 3.879 | 3.051
x1 = 0.2165 | 6.805 | 5.881 | 5.042 | 4.16
x1 = 0.2844 | 7.59 | 6.613 | 5.581 | 4.657
x1 = 0.3126 | 7.757 | 6.756 | 5.6 | 4.662
x1 = 0.4042 | 8.369 | 7.294 | 6.023 | 5.03
x1 = 0.4673 | 8.697 | 7.57 | 6.22 | 5.191
x1 = 0.5033 | 8.878 | 7.734 | 6.31 | 5.257
x1 = 0.5562 | 9.001 | 7.801 | 6.341 | 5.256
x1 = 0.6237 | 9.088 | 7.833 | 6.29 | 5.164
x1 = 0.6431 | 8.989 | 7.719 | 6.152 | 5.014
x1 = 0.6903 | 9.041 | 7.732 | 6.105 | 4.937
x1 = 0.7439 | 8.864 | 7.512 | 5.819 | 4.62
x1 = 0.7911 | 8.713 | 7.322 | 5.569 | 4.342
x1 = 0.8624 | 8.88 | 7.431 | 5.591 | 4.32
x1 = 0.9222 | 8.663 | 7.164 | 5.249 | 3.943
x1 = 0.9785 | 8.737 | 7.193 | 5.209 | 3.868

CCC1CCCCC1 + CCCCO
viscosity [mPa·s], 100 kPa
Settings | x2 = 0.1001 | x2 = 0.2 | x2 = 0.3001 | x2 = 0.4 | x2 = 0.4999 | x2 = 0.5997 | x2 = 0.7 | x2 = 0.8 | x2 = 0.9
293.15 K | 0.867 | 0.908 | 0.984 | 1.1 | 1.254 | 1.451 | 1.718 | 2.051 | 2.436
298.15 K | 0.813 | 0.849 | 0.912 | 1.007 | 1.142 | 1.314 | 1.549 | 1.817 | 2.157
303.15 K | 0.758 | 0.793 | 0.851 | 0.929 | 1.045 | 1.202 | 1.399 | 1.625 | 1.911
308.15 K | 0.716 | 0.744 | 0.794 | 0.861 | 0.958 | 1.08 | 1.25 | 1.465 | 1.711
313.15 K | 0.666 | 0.692 | 0.729 | 0.791 | 0.871 | 0.98 | 1.121 | 1.303 | 1.515
318.15 K | 0.628 | 0.646 | 0.681 | 0.734 | 0.803 | 0.894 | 1.018 | 1.174 | 1.351
323.15 K | 0.584 | 0.604 | 0.633 | 0.678 | 0.737 | 0.814 | 0.924 | 1.058 | 1.219
